pIC50: −log10 of the molar value. Structures can show the parent of a compound that is named as a salt.
Each compound was assayed against T1, human muscarinic acetylcholine M3 receptor (Homo sapiens, UniProt P20309) (assay: biochemical). Conditions: M3 binding IC50.
T1 construct: expressed in transfected cells; host or cells: CHO-K1 (Chinese Hamster Ovary) cell membranes
T1 sequence (P20309 whole entry): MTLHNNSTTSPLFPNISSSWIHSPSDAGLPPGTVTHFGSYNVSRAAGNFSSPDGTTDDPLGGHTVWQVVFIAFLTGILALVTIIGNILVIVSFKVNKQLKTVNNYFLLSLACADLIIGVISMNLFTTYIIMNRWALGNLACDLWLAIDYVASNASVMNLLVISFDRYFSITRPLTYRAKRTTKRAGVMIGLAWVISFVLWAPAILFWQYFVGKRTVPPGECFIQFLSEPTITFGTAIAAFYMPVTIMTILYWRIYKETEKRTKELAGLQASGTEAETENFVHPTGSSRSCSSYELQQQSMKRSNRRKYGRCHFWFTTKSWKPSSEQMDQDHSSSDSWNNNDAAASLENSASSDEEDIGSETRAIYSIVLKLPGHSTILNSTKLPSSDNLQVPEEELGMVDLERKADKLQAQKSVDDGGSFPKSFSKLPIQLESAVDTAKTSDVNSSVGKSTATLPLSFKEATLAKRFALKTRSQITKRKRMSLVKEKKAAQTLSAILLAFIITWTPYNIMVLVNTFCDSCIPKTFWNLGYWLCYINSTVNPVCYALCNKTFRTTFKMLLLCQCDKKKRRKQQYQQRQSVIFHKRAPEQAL
Assay type: binding
Compound `Cc1ccc(NC(=O)C[N+]23CCC(CC2)[C@@H](OC(=O)C2(c4ccccc4)CCCCCC2)C3)cn1` [Example 1, (R)-1-[(6-Methyl-pyridin-3-ylcarbamoyl)-methyl]-3-(1-phenyl-cycloheptanecarbonyloxy)-1-azonia-bicyclo[2.2.2]octane chloride] has a pIC50 greater than 8.70.
With `O=C(C[N+]12CCC(CC1)[C@@H](OC(=O)C1(c3ccccc3)CCCCCC1)C2)Nc1ccc(C(F)(F)F)nn1` [Example 3, (R)-3-(1-Phenyl-cycloheptanecarbonyloxy)-1-[(6-trifluoromethyl-pyridazin-3-ylcarbamoyl)-methyl]-1-azonia-bicyclo[2.2.2]octane bromide] the pIC50 was 8.00 to 8.70.
In the case of `O=C(C[N+]12CCC(CC1)[C@@H](OC(=O)C1(c3ccccc3)CCCCCC1)C2)Nc1cccc(F)c1F` [Example 24, (R)-1-[(2,3-Difluoro-phenylcarbamoyl)-methyl]-3-(1-phenyl-cycloheptanecarbonyloxy)-1-azonia-bicyclo[2.2.2]octane bromide], the pIC50 was greater than 8.70.
In the case of `N#Cc1ccc(COCC[N+]23CCC(CC2)[C@@H](OC(=O)C2(c4ccccc4)CCCCCC2)C3)cc1` [Example 42, (R)-1-[2-(4-Cyano-benzyloxy)-ethyl]-3-(1-phenyl-cycloheptanecarbonyloxy)-1-azonia-bicyclo[2.2.2]octane bromide], the pIC50 was 8.00 to 8.70.
In the case of `O=C(C[N+]12CCC(CC1)[C@@H](OC(=O)C1(c3ccccc3)CCCCCC1)C2)Nc1ncco1` [Example 48, (R)-1-(Oxazol-2-ylcarbamoylmethyl)-3-(1-phenyl-cycloheptanecarbonyloxy)-1-azonia-bicyclo[2.2.2]octane bromide], the pIC50 was 8.00 to 8.70.
Work on `N#Cc1ccc(NC(=O)C[N+]23CCC(CC2)[C@@H](OC(=O)C2(c4ccccc4)CCCCCC2)C3)nc1` [Example 51, (R)-1-[(5-Cyano-pyridin-2-ylcarbamoyl)-methyl]-3-(1-phenyl-cycloheptanecarbonyloxy)-1-azonia-bicyclo[2.2.2]octane chloride] yielded a pIC50 of 8.00 to 8.70.
`COc1ccc(COCC[N+]23CCC(CC2)[C@@H](OC(=O)C2(c4ccccc4)CCCCCC2)C3)cc1` [Example 36, (R)-1-[2-(4-methoxy-benzyloxy)-ethyl]-3-(1-phenyl-cycloheptanecarbonyloxy)-1-azonia-bicyclo[2.2.2]octane formate] gave a pIC50 of 8.00 to 8.70.
`O=C(C[N+]12CCC(CC1)[C@@H](OC(=O)C1(c3ccccc3)CCCCCC1)C2)Nc1noc2ccccc12` [Example 4, (R)-1-(Benzo[d]isoxazol-3-ylcarbamoylmethyl)-3-(1-phenyl-cycloheptanecarbonyloxy)-1-azonia-bicyclo[2.2.2]octane chloride] showed a pIC50 greater than 8.70.
Work on `O=C(O[C@H]1C[N+]2(CCOc3ccc(F)cc3)CCC1CC2)C1(c2ccccc2)CCCCCC1` [Example 26, (R)-1-[2-(4-Fluoro-phenoxy)-ethyl]-3-(1-phenyl-cycloheptanecarbonyloxy)-1-azonia-bicyclo[2.2.2]octane formate] yielded a pIC50 greater than 8.70.
`Cc1cncc(NC(=O)C[N+]23CCC(CC2)[C@@H](OC(=O)C2(c4ccccc4)CCCCCC2)C3)n1` [Example 2, (R)-1-[(6-Methyl-pyrazin-2-ylcarbamoyl)-methyl]-3-(1-phenyl-cycloheptanecarbonyloxy)-1-azonia-bicyclo[2.2.2]octane bromide] was tested, and the pIC50 was greater than 8.70.
With `O=C(C[N+]12CCC(CC1)[C@@H](OC(=O)C1(c3ccccc3)CCCCCC1)C2)Nc1ncns1` [Example 56, (R)-3-(1-Phenyl-cycloheptanecarbonyloxy)-1-([1,2,4]thiadiazol-5-ylcarbamoylmethyl)-1-azonia-bicyclo[2.2.2]octane chloride] the pIC50 was 8.00 to 8.70.
In the case of `O=C(C[N+]12CCC(CC1)[C@@H](OC(=O)C1(c3ccccc3)CCCCCC1)C2)Nc1ccncn1` [Example 22, (R)-3-(1-Phenyl-cycloheptanecarbonyloxy)-1-(pyrimidin-4-ylcarbamoylmethyl)-1-azonia-bicyclo[2.2.2]octane chloride], the pIC50 was greater than 8.70.

Same assay, conditions: pIC50
`Cc1ccc(NC(=O)C[N+]23CCC(CC2)[C@@H](OC(=O)C2(c4ccccc4)CCCCCC2)C3)cn1` [Example 1, (R)-1-[(6-Methyl-pyridin-3-ylcarbamoyl)-methyl]-3-(1-phenyl-cycloheptanecarbonyloxy)-1-azonia-bicyclo[2.2.2]octane chloride] gave a pIC50 of 9.10.
